# Experimental data taken from PubChem BioAssay AID248 (DTP/NCI, 2004).
# Several values for one entry are separate records, joined by “and”; a condition that tells them apart may be missing. Equal entries are not always repeated. Inconclusive results and toxic doses are left out.
# Test system: L1210 leukemia ip in BDF1 mice, survival T/C
# Assay: NCI In Vivo Anticancer Drug Screen. Data for tumor model L1210 Leukemia (intraperitoneal) in B6D2F1 (BDF1) mice
# Conditions: endpoint: mean survival time, higher = longer survival
# How it was run: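 Mice bearing the transplanted tumor received compound or vehicle. Survival of the treated group was divided by that of the vehicle-treated control group to give the ratio.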
# [1] = dose: 100.0 mg/kg/injection, schedule: Q01DX001 (ip), vehicle: Klucel (hydroxypropylcellulose) (HPC)
# [2] = dose: 100.0 mg/kg/injection, schedule: Q01DX009 (ip), vehicle: Klucel (hydroxypropylcellulose) (HPC)
# [3] = dose: 100.0 mg/kg/injection, schedule: Q04DX003 (ip), vehicle: Klucel (hydroxypropylcellulose) (HPC)
# [4] = dose: 200.0 mg/kg/injection, schedule: Q01DX001 (ip), vehicle: Klucel (hydroxypropylcellulose) (HPC)
# [5] = dose: 200.0 mg/kg/injection, schedule: Q01DX009 (ip), vehicle: Klucel (hydroxypropylcellulose) (HPC)
# [6] = dose: 200.0 mg/kg/injection, schedule: Q04DX003 (ip), vehicle: Klucel (hydroxypropylcellulose) (HPC)
# [7] = dose: 400.0 mg/kg/injection, schedule: Q01DX001 (ip), vehicle: Klucel (hydroxypropylcellulose) (HPC)
# [8] = dose: 400.0 mg/kg/injection, schedule: Q01DX009 (ip), vehicle: Klucel (hydroxypropylcellulose) (HPC)
# [9] = dose: 400.0 mg/kg/injection, schedule: Q04DX003 (ip), vehicle: Klucel (hydroxypropylcellulose) (HPC)
# [10] = dose: 100.0 mg/kg/injection, schedule: Q01DX001 (ip), vehicle: carboxymethylcellulose (CMC)
# [11] = dose: 200.0 mg/kg/injection, schedule: Q01DX001 (ip), vehicle: carboxymethylcellulose (CMC)
# [12] = dose: 400.0 mg/kg/injection, schedule: Q01DX001 (ip), vehicle: carboxymethylcellulose (CMC)
# [13] = dose: 100.0 mg/kg/injection, schedule: Q01DX001 (ip), vehicle: saline
# [14] = dose: 200.0 mg/kg/injection, schedule: Q01DX001 (ip), vehicle: saline
# [15] = dose: 400.0 mg/kg/injection, schedule: Q01DX001 (ip), vehicle: saline
structure (smiles),measurement,setting,value
O=c1cc(CO)[nH]cc1O,T/C,"dose: 25.0 mg/kg/injection, schedule: Q01DX Z (ip), vehicle: methylcellulose (MC)",102 % of control
same,T/C,"dose: 50.0 mg/kg/injection, schedule: Q01DX015 (ip), vehicle: carboxymethylcellulose (CMC)",103 % of control
same,T/C,"dose: 50.0 mg/kg/injection, schedule: Q01DX Z (ip), vehicle: methylcellulose (MC)",96 % of control
same,T/C,"dose: 62.5 mg/kg/injection, schedule: Q01DX015 (ip), vehicle: saline",115 % of control
same,T/C,"dose: 78.0 mg/kg/injection, schedule: Q01DX Z (ip), vehicle: carboxymethylcellulose (CMC)",98 % of control and 112 % of control
same,T/C,"dose: 78.0 mg/kg/injection, schedule: Q01DX Z (ip), vehicle: saline",96 % of control and 114 % of control
same,T/C,[1],106 % of control
same,T/C,[2],110 % of control and 121 % of control
same,T/C,"dose: 100.0 mg/kg/injection, schedule: Q01DX009 (ip), vehicle: saline",121 % of control
same,T/C,"dose: 100.0 mg/kg/injection, schedule: Q01DX015 (ip), vehicle: carboxymethylcellulose (CMC)",108 % of control
same,T/C,"dose: 100.0 mg/kg/injection, schedule: Q01DX Z (ip), vehicle: methylcellulose (MC)",101 % of control
same,T/C,[3],110 % of control
same,T/C,"dose: 100.0 mg/kg/injection, schedule: Q04DX003 (ip), vehicle: saline",106 % of control
same,T/C,"dose: 117.0 mg/kg/injection, schedule: Q01DX Z (ip), vehicle: carboxymethylcellulose (CMC)",104 % of control and 121 % of control
same,T/C,"dose: 117.0 mg/kg/injection, schedule: Q01DX Z (ip), vehicle: methylcellulose (MC)",110 % of control
same,T/C,"dose: 117.0 mg/kg/injection, schedule: Q01DX Z (ip), vehicle: saline",110 % of control and 120 % of control
same,T/C,"dose: 125.0 mg/kg/injection, schedule: Q01DX001 (ip), vehicle: carboxymethylcellulose (CMC)",104 % of control and 106 % of control
same,T/C,"dose: 125.0 mg/kg/injection, schedule: Q01DX015 (ip), vehicle: saline",113 % of control
same,T/C,"dose: 125.0 mg/kg/injection, schedule: Q## X001 (ip), vehicle: carboxymethylcellulose (CMC)",100 % of control
same,T/C,"dose: 175.0 mg/kg/injection, schedule: Q01DX Z (ip), vehicle: carboxymethylcellulose (CMC)",109 % of control
same,T/C,"dose: 175.0 mg/kg/injection, schedule: Q01DX Z (ip), vehicle: methylcellulose (MC)",96 % of control
same,T/C,"dose: 175.0 mg/kg/injection, schedule: Q01DX Z (ip), vehicle: saline",113 % of control
same,T/C,"dose: 177.0 mg/kg/injection, schedule: Q01DX009 (ip), vehicle: Klucel (hydroxypropylcellulose) (HPC)",121 % of control
same,T/C,[4],110 % of control
same,T/C,[5],151 % of control
same,T/C,[6],122 % of control
same,T/C,"dose: 200.0 mg/kg/injection, schedule: Q04DX003 (ip), vehicle: saline",115 % of control
same,T/C,"dose: 250.0 mg/kg/injection, schedule: Q01DX001 (ip), vehicle: carboxymethylcellulose (CMC)",97 % of control and 101 % of control
same,T/C,"dose: 250.0 mg/kg/injection, schedule: Q01DX015 (ip), vehicle: saline",159 % of control
same,T/C,"dose: 250.0 mg/kg/injection, schedule: Q## X001 (ip), vehicle: carboxymethylcellulose (CMC)",106 % of control
same,T/C,"dose: 263.0 mg/kg/injection, schedule: Q01DX Z (ip), vehicle: carboxymethylcellulose (CMC)",124 % of control
same,T/C,"dose: 263.0 mg/kg/injection, schedule: Q01DX Z (ip), vehicle: methylcellulose (MC)",110 % of control
same,T/C,"dose: 264.0 mg/kg/injection, schedule: Q01DX008 (ip), vehicle: saline",106 % of control
same,T/C,"dose: 264.0 mg/kg/injection, schedule: Q01DX009 (ip), vehicle: saline",101 % of control
same,T/C,"dose: 393.0 mg/kg/injection, schedule: Q01DX Z (ip), vehicle: methylcellulose (MC)",116 % of control
same,T/C,[7],112 % of control
same,T/C,"dose: 400.0 mg/kg/injection, schedule: Q01DX008 (ip), vehicle: saline",116 % of control
same,T/C,[8],156 % of control
same,T/C,[9],122 % of control
same,T/C,"dose: 400.0 mg/kg/injection, schedule: Q04DX003 (ip), vehicle: saline",112 % of control
same,T/C,"dose: 500.0 mg/kg/injection, schedule: Q01DX001 (ip), vehicle: carboxymethylcellulose (CMC)",95 % of control and 111 % of control
same,T/C,"dose: 500.0 mg/kg/injection, schedule: Q01DX015 (ip), vehicle: saline",165 % of control
same,T/C,"dose: 500.0 mg/kg/injection, schedule: Q01DX Z (ip), vehicle: methylcellulose (MC)",106 % of control
same,T/C,"dose: 500.0 mg/kg/injection, schedule: Q## X001 (ip), vehicle: carboxymethylcellulose (CMC)",101 % of control
same,T/C,"dose: 590.0 mg/kg/injection, schedule: Q01DX Z (ip), vehicle: carboxymethylcellulose (CMC)",105 % of control
same,T/C,"dose: 625.0 mg/kg/injection, schedule: Q01DX Z (ip), vehicle: methylcellulose (MC)",108 % of control
same,T/C,"dose: 750.0 mg/kg/injection, schedule: Q01DX Z (ip), vehicle: methylcellulose (MC)",120 % of control
same,T/C,"dose: 1000.0 mg/kg/injection, schedule: Q01DX001 (ip), vehicle: carboxymethylcellulose (CMC)",102 % of control and 105 % of control
same,T/C,"dose: 1000.0 mg/kg/injection, schedule: Q## X001 (ip), vehicle: carboxymethylcellulose (CMC)",108 % of control
Cc1cc2oc(/C=N/NC(N)=S)c(C)c2cc1C,T/C,[2],100 % of control
same,T/C,[5],99 % of control
same,T/C,[8],105 % of control
CCC(=O)N/N=C(\N)N[N+](=O)[O-],T/C,"dose: 87.5 mg/kg/injection, schedule: Q04DX003 (ip), vehicle: Klucel (hydroxypropylcellulose) (HPC)",102 % of control
same,T/C,"dose: 175.0 mg/kg/injection, schedule: Q04DX003 (ip), vehicle: Klucel (hydroxypropylcellulose) (HPC)",105 % of control
same,T/C,"dose: 350.0 mg/kg/injection, schedule: Q04DX003 (ip), vehicle: Klucel (hydroxypropylcellulose) (HPC)",103 % of control
CC#CC(O)(C(=O)OC)c1ccccc1 (stereo not drawn),T/C,[10],94 % of control
same,T/C,[11],102 % of control
same,T/C,[12],108 % of control
CNc1cccc(C(=O)O)c1,T/C,[1],91 % of control
same,T/C,[3],113 % of control
same,T/C,[4],102 % of control
same,T/C,[6],107 % of control
same,T/C,[7],98 % of control
same,T/C,[9],97 % of control
COc1ccc(/C=N\NC(=O)c2ccncc2)cc1,T/C,"dose: 50.0 mg/kg/injection, schedule: Q04DX002 (ip), vehicle: Klucel (hydroxypropylcellulose) (HPC)",109 % of control
same,T/C,"dose: 100.0 mg/kg/injection, schedule: Q04DX002 (ip), vehicle: Klucel (hydroxypropylcellulose) (HPC)",113 % of control
same,T/C,"dose: 200.0 mg/kg/injection, schedule: Q04DX002 (ip), vehicle: Klucel (hydroxypropylcellulose) (HPC)",106 % of control
same,T/C,"dose: 400.0 mg/kg/injection, schedule: Q04DX002 (ip), vehicle: Klucel (hydroxypropylcellulose) (HPC)",118 % of control
CCCCOC(=O)CCCCC(=O)OC(C)C(=O)OCCCC (stereo not drawn),T/C,[13],102 % of control
same,T/C,[14],102 % of control
same,T/C,[15],89 % of control
Nc1ccc2c(c1)C(O)c1cc(N)c(Br)cc1-2 (stereo not drawn),T/C,[10],103 % of control
same,T/C,[11],110 % of control
same,T/C,[12],103 % of control
CC[C@@]1(O)C(=O)OCc2c1cc1n(c2=O)Cc2c-1nc1ccccc1c2Cl,T/C,[13],117 % of control
same,T/C,[15],88 % of control
CCC(C)OC(=O)Nc1cccc(OC(=O)N(CC)CC)c1 (stereo not drawn),T/C,"dose: 100.0 mg/kg/injection, schedule: Q01DX001 (ip), vehicle: saline with Tween-80",103 % of control
same,T/C,"dose: 200.0 mg/kg/injection, schedule: Q01DX001 (ip), vehicle: saline with Tween-80",90 % of control
same,T/C,"dose: 400.0 mg/kg/injection, schedule: Q01DX001 (ip), vehicle: saline with Tween-80",100 % of control
CNC(=O)Oc1ccc(/C=N/NC(=O)c2ccncc2)cc1OC,T/C,[2],97 % of control
same,T/C,[5],97 % of control
Cc1ncc(CO)n1Cc1ccccc1,T/C,[1],104 % of control
same,T/C,[4],104 % of control
same,T/C,[7],114 % of control
CC[n+]1ccc(C)c2ccccc21,T/C,"dose: 12.5 mg/kg/injection, schedule: Q04DX002 (ip), vehicle: saline",102 % of control and 103 % of control
same,T/C,"dose: 12.5 mg/kg/injection, schedule: Q04DX003 (ip), vehicle: saline",103 % of control
same,T/C,"dose: 25.0 mg/kg/injection, schedule: Q04DX002 (ip), vehicle: saline",95 % of control and 98 % of control
same,T/C,"dose: 25.0 mg/kg/injection, schedule: Q04DX003 (ip), vehicle: saline",100 % of control
same,T/C,"dose: 50.0 mg/kg/injection, schedule: Q04DX002 (ip), vehicle: saline",95 % of control and 102 % of control
same,T/C,"dose: 50.0 mg/kg/injection, schedule: Q04DX003 (ip), vehicle: saline",105 % of control
CC(CCc1ccc2sc3ccccc3c2c1)C(N)=O (stereo not drawn),T/C,[13],94 % of control
same,T/C,[14],92 % of control
same,T/C,[15],94 % of control
